We go through 2 compounds from patent US10238631B2, “Sesquiterpene derivatives and their use in inflammation or cancer treatment” (Academia Sinica, priority 2014, dated 2019).

pIC50: −log10 of the molar value. Read-outs that look alike come from different tables or passages of the source.

Experiment [1] concerns MDA-MB-231 cell invasion. The experiment in a line: Boyden chamber (Matrigel) invasion assay. The class given is cell-based, human. Conditions: 24 h. As to the method:
(§1) To test the anti-migratory and anti-invasive effect of DET. DETD-35 and PTX. Boyden chambers assay was carried out. The lower well of the chamber (6.5 mm diameter, […]; Costar. Cambridge, Mass., USA) was added 10% fetal bovine serum (FBS) as a chemoattractant and filled with DMEM culture medium containing vehicle (DMSO, 0.05%), DET (2.5 and 4 μM). DETD-35 (1.25 and 2.5 μM), or PTX (2.5 and 4 μM). MDA-MB-231 cells were placed into the upper chamber (5×10^4 cells per insert) with the medium containing 0.1% FBS. After 24 h incubation at 37° C. in a 5% CO2 atmosphere, non-migrating cells were scraped from the upper surface of the membrane using a cotton swab, and the migrated cells remaining in the well were fixed and stained with DAPI solution (4,6-diamidino-2-phenylindole, 1 μg/ml). The migrating cells were counted in three fields at 20× original magnifications by inverted fluorescence microscopy. To test the anti-invasive effect of the compounds, 8-μm filters were pre-coating with Matrigel (30 μg per filter) and incubated at 37° C. for 2 h, then followed the protocol of migration assay descried about.

The subject of experiment [2] is U-87MG brain cancer cell line. Put plainly: MTT cell viability assay, U-87MG. Conditions: Homo sapiens, 24 h. The experiment is classed as cell-based. The procedure:
Normal or cancer cells (2×10^3 to 1×10^4 cells/well) were seeded in 96-well plate for overnight and treated with different compounds for 24 h to 72 h. Cells growth were determined by MTT-based colorimetric assays according to. Viability of the test cells treated with vehicle (0.5% DMSO) only was defined as 100% viable. Survival of cells after treatment with DETDs was calculated using the following formula: viable cell number (%)=OD570 (treated cell culture)/OD570 (vehicle control)×100.
Based on toxicity results of DET and DETDs on different breast cancer and melanoma cell lines, we selected DETD-6, -32, -35 and -39, under the consideration of structure activity relationship for evaluating their suppression effect against other cancer types of cell line with indicated tumor origin in Table 5. […] The cells were treated with compounds for 24 h and then subjected to MTT assays.

Experiment [3] concerns HTB-68 (NRAS mutation). Put plainly: MTT cell viability assay, HTB-68 melanoma. Conditions: 24 h. The experiment is classed as cell-based, human. The procedure, abridged: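 Overnight-seeded cells (2×10^3–1×10^4/well) → compound 24–72 h → MTT, OD570; % viable = treated/vehicle ×100, vehicle 0.5% DMSO.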
The subject of experiment [4] is A375 human melanoma tumor. Put plainly: A375 melanoma xenograft model in NOD/SCID mice. The class given is in vivo, mouse. Conditions: 20 mg/kg i.p.; PLX4032 every day, DET and DETD-35 every two days. The procedure: (§2) A375 and A375-R melanoma cells (3×10^6) were injected subcutaneously to the flanks of the six weeks old NOD/SCID mice. One week after the inoculation, the mice were randomized into treated groups (n=8 per group) and the treatments were started. Body weight and tumor volume of the mice were recorded every three days using formula a×b^2×0.5, where a and b represented the larger and smaller tumor diameters.
We used A375 human melanoma xenograft model to evaluate the in vivo bioefficacy of DET. DETD-35, PLX4032 and compound drug combination. […] For single compound or drug treatment group, PLX4032 was administered i.p. every day and DET and DETD-35 were administered i.p. every two days. For combination treatment, PLX4032 was administered every two days while DET and DETD-35 were administered every four days. […] Compound-drug combinational treatments were carried out with alternative administration of DET (20 mg/kg) or DETD-35 (20 mg/kg) and PLX4032 (20 mg/kg) by which DET or DETD-35 and PLX4032 treatment frequency were only half of the single compound or drug administration alone.

Experiment [5] has as its system TS/A (ER+, Her2−) murine mammary cancer cells. The experiment in a line: MTT cell viability assay, TS/A cells. The experiment is classed as cell-based. Conditions: Mus musculus. The procedure, abridged: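 Seed 2×10^3 to 1×10^4 cells/well, overnight. Treat with compounds 24 h to 72 h. Add MTT, read OD570. Express survival relative to 0.5% DMSO vehicle (100%).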
The subject of experiment [6] is A375-R PLX4032-resistant melanoma tumor. The experiment in a line: A375-R melanoma xenograft model in NOD/SCID mice. The class given is in vivo, mouse. Conditions: 20 mg/kg i.p. alone. The procedure: as §2
To study whether or not DETD-35 could overcome acquired resistance to BRAF inhibitor, we generated A375 cell line resistant to PLX4032 (designated A375-R) as described above. We then conducted A375-R orthotopic xenograft study.

The test system of experiment [7] is MDA-MB-231 cell migration. The experiment in a line: Boyden chamber migration assay. The class given is cell-based, human. Conditions: 24 h; for reduction of cell migration vs vehicle control: higher concentrations (DET 4 μM, DETD-35 2.5 μM, PTX 4 μM); for suppression of cell migration vs vehicle control: lower concentrations (DET 2.5 μM, DETD-35 1.25 μM, PTX 2.5 μM). The procedure: as §1

For experiment [8], the system named is LPS-induced nitric oxide (NO) production in RAW 264.7 cells. Put plainly: Nitric oxide production in LPS-stimulated macrophages (Griess). The experiment is classed as cell-based, mouse. Conditions: for pIC50: Mus musculus, LPS-stimulated RAW264.7, nitrite 24 h after LPS. The procedure, abridged: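 RAW 264.7 macrophages (2×10^5 cells/well) were pretreated with compound for 1 h and then stimulated with 100 ng/μL LPS for 24 h. NO was measured as nitrite in the medium by the Griess reaction. Viability was checked in parallel by MTT.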

[9] abbreviates: 24 h, read-out: IC50 on cell viability, TS/A (ER+, Her2−).
[10] abbreviates: Table 5, 24 h, read-out: IC50 viability TS/A (mouse) (Breast).

For `C=C(C)C(=O)O[C@H]1CC2=C[C@@H](C/C(C)=C/[C@H]3OC(=O)C(=C)[C@H]13)OC2=O` [DET, deoxyelephantopin, reference compound], the “inhibition of cell invasion” value in experiment [1] (higher concentrations (DET 4 μM, DETD-35 2.5 μM, PTX 4 μM)) is 76%; in experiment [1] (lower concentrations (DET 2.5 μM, DETD-35 1.25 μM, PTX 2.5 μM)) it was 57%. For the same compound, the pIC50 in experiment [2] is 6.00; in experiment [3], under 5.00; in experiment [3] (Homo sapiens) it was under 5.00; in experiment [5] (setting [9]) it was 5.64; in experiment [5] (setting [10]), 5.59; in experiment [8], 5.54. Also, in experiment [4], the “reduction of tumor mass vs tumor control” value is reported as 47.5%. Further, the “reduction of tumor mass” value in experiment [6] was 32%. The “reduction of cell migration vs vehicle control” value in experiment [7] was determined as 77%. Moreover, in experiment [7], the “suppression of cell migration vs vehicle control” value came to 16%.

For the compound `C=C1C(=O)O[C@H]2CC3=C[C@@H](C/C(C)=C/[C@@H](OC(=O)Cc4cccc5ccccc45)[C@H]12)OC3=O` [DETD-35], the inhibition at 2.5 µM in experiment [1] (Homo sapiens, MDA-MB-231, higher concentrations (DET 4 μM, DETD-35 2.5 μM, PTX 4 μM)) is 80%. In experiment [1] (Homo sapiens, MDA-MB-231, lower concentrations (DET 2.5 μM, DETD-35 1.25 μM, PTX 2.5 μM)), this compound came in with an inhibition at 1.25 µM of 64.6%. Further, the pIC50 in experiment [2] was 6.47; in experiment [3] (Homo sapiens), 5.41; in experiment [5] (setting [9]), 5.77; in experiment [5] (setting [10]) it was 5.77; in experiment [8], 5.82. Also, the “reduction of tumor mass vs tumor control” value in experiment [4] is listed as 70.5%. In addition, in experiment [6], the “reduction of tumor mass” value is listed as 46.9%. In experiment [7], the “reduction of cell migration vs vehicle control” value is 84%. For the same compound, the “suppression of cell migration vs vehicle control” value in experiment [7] stood at 10%. Moreover, the “fold decrease in IC50 of NO production vs DET” value in experiment [8] was 2 fold.
